This note sets out measurements from paper PMC10449633 (Nature Chemical Biology, 2023).

In the assay the test system is SARS-CoV-2 spike protein. The format is cell-based.

Numbered stars: 1 amine (or outer) side, 2 acyl side, 3 side chain; on linkers, the order of the positions; unused ones are H or OH. Square brackets hold non-standard residues; d marks the D form. Peptide text beside a SMILES is read from it. ξ: configuration not given here. X1 = CN(C(Cc1cn(Cc2ccc(Br)cc2)c2ccccc12)C(=O)[*:2])[*:1]; ξAla(CF3) = NC(CC(F)(F)F)C(=O)O; X2 = N#CCCC(O[*:1])C(=O)[*:2]; NMeL = CN[CH](CC(C)C)C(=O)O; NMeA = CN[CH](C)C(=O)O

In the case of `CC(C)CC1NC(=O)C(Cc2cn(Cc3ccc(Br)cc3)c3ccccc23)N(C)C(=O)C(CC(F)(F)F)NC(=O)C(CC(C)C)N(C)C(=O)C(CC(F)(F)F)NC(=O)C(CCC#N)OC(=O)C(C)N(C)C1=O` (stereo not shown) [KZR-8445] (cyclo([X1]L[NMeA][X2][ξAla(CF3)][NMeL][ξAla(CF3)]); configuration not given here), the “biogenesis of the Spike protein” value is “inhibits”.
